In assay [1] the test system is human antibodies in human serum samples. Briefly: EIA reactivities of three human serum samples with deletion and alanine substitution analogues of SEQ ID NO: 1 (Table 6). The assay is classed as binding. To be noted: positive = more than 50% of the reactivity of the original peptide. On the procedure: The EIAs used to identify which peptides interacted with human sera followed protocols known in the art. (See Zhang et al., J Gen Virol, 78:2735-2746 (1997), herein expressly incorporated by reference in its entirety). Briefly, microplates (Nunc, Denmark) were coated for 48 hours with synthetic peptides at a concentration of 10 μg/ml in 0.05M sodium carbonate buffer pH 9.6. After blocking for 2 hours at room temperature with phosphate buffered saline containing 1% bovine serum albumin, 2% goat serum and 0.05% Tween 20 (dilution buffer) the plates were incubated with human sera diluted 1:100 in dilution buffer. Bound human IgG was detected by incubation with anti-human IgG antibodies conjugated to alkaline phosphatase (Sigma Chemicals, St. Louis, Mo.). The plates were developed by the addition of […] (Sigma) and the optical densities were determined at 405 nm.
The reactivity to the TATTTTYAYPGTNRPPV (SEQ ID NO: 1) peptide was further characterized by mapping the reactivity of deletion and substitution peptide analogues.

The test system of assay [2] is human IgG antibodies in human serum samples. Briefly: EIA of human antibody reactivities to overlapping synthetic peptides of TTV ORF1 and ORF2 (Tables 2 and 3). To be noted: for optical density (OD) at 405 nm: serum diluted 1:100, OD over 0.500 considered positive; for human reactivity to peptide (reactive peptides within ORF1): tested human sera, EIA. In kind it is binding. The method, boiled down: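 Plates were coated 48 h with 18-mer peptides (8-residue overlap) at 10 μg/ml in carbonate buffer pH 9.6, then blocked 2 h at room temperature in PBS/1% BSA/2% goat serum/0.05% Tween 20. Sera were applied at 1:100, and bound IgG was detected with alkaline phosphatase anti-human IgG, read at 405 nm.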

The mark [3] stands for this setting: human serum sample 1, negative for TTV DNA by PCR.
The mark [4] stands for this setting: human serum sample 2, negative for TTV DNA by PCR.
Where [5] appears, read: human serum sample 3, negative for TTV DNA by PCR.
The mark [6] stands for this setting: human serum sample 4, negative for TTV DNA by PCR.
Setting [7] is: human serum sample 5, negative for TTV DNA by PCR.
Where [8] appears, read: human serum sample 6, negative for TTV DNA by PCR.
The mark [9] stands for this setting: human serum sample 7, negative for TTV DNA by PCR.
Where [10] appears, read: human serum sample 9, positive for TTV DNA by PCR.
The mark [11] stands for this setting: human serum sample 11, negative for TTV DNA by PCR.
Setting [12] is: human serum sample 18, positive for TTV DNA by PCR.
The mark [13] stands for this setting: human serum sample 36, positive for TTV DNA by PCR.
The mark [14] stands for this setting: human serum sample 48, positive for TTV DNA by PCR.
Where [15] appears, read: human serum sample 98, positive for TTV DNA by PCR.
The mark [16] stands for this setting: human serum sample 110, positive for TTV DNA by PCR.
The mark [17] stands for this setting: human serum sample 155, positive for TTV DNA by PCR.
[18] abbreviates: human serum sample 157, positive for TTV DNA by PCR.

In the case of “22: overlapping synthetic peptide of TTV ORF1 (TATTTTYAYPGTNR) [compound 22]”, the “OD at 405 nm, reactivity of human serum sample P4” value (“OD … of human serum sample P4” below) in assay [1] worked out at 0.092 OD. For the same substance, the “OD at 405 nm, reactivity of human serum sample P7” value (shortened to “OD … of human serum sample P7”) in assay [1] turned out to be 0.103 OD. Besides, the “OD at 405 nm, reactivity of human serum sample P36” value (“OD … of human serum sample P36” for short) in assay [1] is given as 0.078 OD. Further, the “optical density (OD) at 405 nm” value in assay [2] (setting [3]) was 0.07 OD; in assay [2] (setting [4]) it was 0.07 OD; in assay [2] (setting [5]), 0.07 OD; in assay [2] (setting [6]), 0.08 OD; in assay [2] (setting [7]), 0.08 OD; in assay [2] (setting [8]) it was 0.09 OD. In addition, the “optical density (OD) at 405 nm” value in assay [2] (setting [9]) worked out at 0.09 OD; in assay [2] (setting [10]), 0.08 OD; in assay [2] (setting [11]) it was 0.11 OD; in assay [2] (setting [12]), 0.07 OD; in assay [2] (setting [13]), 0.08 OD; in assay [2] (setting [14]), 0.10 OD. Besides, the “optical density (OD) at 405 nm” value in assay [2] (setting [15]) is recorded as 0.04 OD; in assay [2] (setting [16]), 0.07 OD; in assay [2] (setting [17]) it was 0.11 OD; in assay [2] (setting [18]), 0.11 OD.
With “DQNIHMNARLLIRSPFT (Peptide Immunogen) [compound 50, overlapping synthetic peptide of TTV ORF1]”, in assay [1], the “OD … of human serum sample P4” value worked out at 0.836 OD. Also, the “OD … of human serum sample P7” value in assay [1] amounted to 1.769 OD. Besides, the “OD … of human serum sample P36” value in assay [1] was found to be 0.850 OD. The “optical density (OD) at 405 nm” value in assay [2] (setting [3]) came to 0.07 OD; in assay [2] (setting [4]), 0.09 OD; in assay [2] (setting [5]), 0.08 OD; in assay [2] (setting [6]), 0.09 OD; in assay [2] (setting [7]), 0.08 OD; in assay [2] (setting [8]), 0.86 OD. Besides, the “optical density (OD) at 405 nm” value in assay [2] (setting [9]) was 0.29 OD; in assay [2] (setting [10]), 0.08 OD; in assay [2] (setting [11]), 0.18 OD; in assay [2] (setting [12]) it was 0.07 OD; in assay [2] (setting [13]) it was 0.07 OD; in assay [2] (setting [14]), 0.07 OD. For the same substance, the “optical density (OD) at 405 nm” value in assay [2] (setting [15]) is 0.10 OD; in assay [2] (setting [16]), 0.20 OD; in assay [2] (setting [17]) it was 0.63 OD; in assay [2] (setting [18]) it was 0.46 OD. Further, the “human reactivity to peptide (reactive peptides within ORF1)” value (“human reactivity to peptide” for short) in assay [2] is given as “Reactive”.
Regarding “GLYSSIWLSPGRSYFET (Peptide Immunogen) [compound 42, overlapping synthetic peptide of TTV ORF1]”, the “OD … of human serum sample P4” value in assay [1] is 0.135 OD. For the same substance, the “OD … of human serum sample P7” value in assay [1] was 0.242 OD. The “OD … of human serum sample P36” value in assay [1] was 0.076 OD. In addition, the “optical density (OD) at 405 nm” value in assay [2] (setting [3]) amounted to 0.08 OD; in assay [2] (setting [4]) it was 0.11 OD; in assay [2] (setting [5]) it was 0.09 OD; in assay [2] (setting [6]), 0.10 OD; in assay [2] (setting [7]), 0.17 OD; in assay [2] (setting [8]) it was 0.23 OD. Moreover, the “optical density (OD) at 405 nm” value came to 0.11 OD in assay [2] (setting [9]); 0.27 OD in assay [2] (setting [10]); 0.19 OD in assay [2] (setting [11]); 0.12 OD in assay [2] (setting [12]); 0.10 OD in assay [2] (setting [13]); 0.09 OD in assay [2] (setting [14]). For the same substance, the “optical density (OD) at 405 nm” value is 0.16 OD in assay [2] (setting [15]), 0.42 OD in assay [2] (setting [16]), 0.35 OD in assay [2] (setting [17]) and 1.24 OD in assay [2] (setting [18]). The “human reactivity to peptide” value in assay [2] is reported as “Reactive”.
In the case of “LIRSPFTDPQLLVHTDP (Peptide Immunogen) [compound 51, overlapping synthetic peptide of TTV ORF1]”, the “OD … of human serum sample P4” value in assay [1] came to 0.899 OD. The “OD … of human serum sample P7” value in assay [1] was determined as 1.697 OD. Moreover, the “OD … of human serum sample P36” value in assay [1] is listed as 0.903 OD. Further, the “optical density (OD) at 405 nm” value in assay [2] (setting [3]) was found to be 0.06 OD; in assay [2] (setting [4]), 0.09 OD; in assay [2] (setting [5]), 0.08 OD; in assay [2] (setting [6]), 0.10 OD; in assay [2] (setting [7]) it was 0.12 OD; in assay [2] (setting [8]) it was 0.24 OD. Moreover, the “optical density (OD) at 405 nm” value in assay [2] (setting [9]) amounted to 0.13 OD; in assay [2] (setting [10]), 0.07 OD; in assay [2] (setting [11]), 0.13 OD; in assay [2] (setting [12]), 0.07 OD; in assay [2] (setting [13]) it was 0.08 OD; in assay [2] (setting [14]) it was 0.08 OD. The “optical density (OD) at 405 nm” value was 0.11 OD in assay [2] (setting [15]), 0.09 OD in assay [2] (setting [16]), 0.24 OD in assay [2] (setting [17]) and 0.78 OD in assay [2] (setting [18]). Also, in assay [2], the “human reactivity to peptide” value is “Reactive”.
On to “PDEKSQREILLNKIASY (Peptide Immunogen) [compound 29, overlapping synthetic peptide of TTV ORF1]”, for which the “OD … of human serum sample P4” value in assay [1] was 0.142 OD. In assay [1], the “OD … of human serum sample P7” value was determined as 0.105 OD. Besides, in assay [1], the “OD … of human serum sample P36” value amounted to 0.076 OD. The “optical density (OD) at 405 nm” value in assay [2] (setting [3]) was found to be 0.42 OD; in assay [2] (setting [4]), 0.36 OD; in assay [2] (setting [5]) it was 0.45 OD; in assay [2] (setting [6]), 0.53 OD; in assay [2] (setting [7]), 0.22 OD; in assay [2] (setting [8]) it was 0.95 OD. The “optical density (OD) at 405 nm” value in assay [2] (setting [9]) was 0.29 OD; in assay [2] (setting [10]), 0.21 OD; in assay [2] (setting [11]) it was 0.14 OD; in assay [2] (setting [12]), 0.11 OD; in assay [2] (setting [13]), 0.09 OD; in assay [2] (setting [14]) it was 0.10 OD. The “optical density (OD) at 405 nm” value in assay [2] (setting [15]) worked out at 0.09 OD; in assay [2] (setting [16]), 0.25 OD; in assay [2] (setting [17]), 0.59 OD; in assay [2] (setting [18]), 0.62 OD. In assay [2], the “human reactivity to peptide” value was “Reactive”.

The record behind these values is patent publication US20030022158A1, “Peptides from the TT virus sequence and monospecific antibodies binding to the TT virus” (priority 1999, published 2003).
